How the values were obtained:
[1] = system: RBL-2H3 cell line; assay: Degranulation (β-hexosaminidase, co-secreted with histamine) in RBL-2H3 cells; assay type: cell-based; settings: RBL-2H3, IgE + antigen DNP-HAS; 120 μL bacterial culture supernatant or ketotifen 20 μg/mL; negative control (Siraganian buffer) = 1.0
Text: It has been reported that, in an allergic reaction, histamine is expressed in tissues, causing an inflammatory reaction, and suppressing histamine secretion leads to alleviation of allergic symptoms by blocking the reaction by histamine. In the present invention, the alleviation of allergic reactions and the therapeutic effect thereon through inhibition of histamine secretion by KBL697 were further confirmed. Further, in order to confirm whether the effect for treating and preventing chronic allergies identified in Example 1 is an inherent attribute of Lactobacillus gasseri, or is a remarkable effect particularly in KBL697 among Lactobacillus gasseri, the ability to suppress histamine secretion was evaluated also for nine additional Lactobacillus gasseri strains in addition to KBL697. […]
To identify the activity of β-hexosaminidase, 25 μL of the supernatant collected in Example 2-3 was transferred to each well of a 96-well plate, and then 25 μL of substrate (p-nitrophenyl N-acetyl-D-glucosaminidase) was added to each, and followed by a reaction at 37° C. in the 5% CO2 incubator for 90 minutes. Then, 200 μL of stop solution (Na2CO3/NaHCO3) was added to stop the reaction and then absorbance was measured at 405 nm. […]

[2] = system: C57BL6 mice with DSS-induced colitis; assay: DSS-induced colitis in C57BL6 mice, KBL697 with or without infliximab; assay type: in vivo, mouse; settings: administered alone
Text: Infliximab (product name Remicade) is a therapeutic recombinant antibody drug used as an injection for autoimmune diseases such as rheumatoid arthritis, ankylosing spondylitis, ulcerative colitis, Crohn's disease in adults, Crohn's disease in children, psoriasis, and psoriatic arthritis. The purpose of this study was to confirm the effect of improving intestinal disease symptoms in vivo in the case of concurrent administration of KBL697 and infliximab.
After dividing C57BL6 mice into groups of eight mice, the mice were fed tap water with 2% DSS dissolved therein for 8 days (D0 to D7), inducing colitis. At the same time, 200 μL of PBS was orally administered to the mice in the control group for 14 days (D0 to D13) daily, while 200 μL of the KBL697 strain diluted in PBS to 1×10^10 CFU/mL was orally administered to the mice in the group dosed with KBL697 so that the amount of daily administration could be set at 2×10^9 CFU. […] During the 14 days in which colitis was induced by DSS, the body weight changes of the mice in the control group and each test group were measured daily, and on the 14th day after DSS was supplied (D14), mice were subjected to autopsies to measure the length of the colon.

Compound | β-hexosaminidase (fold change) [1] | width of decrease in the colon length compared to control group (DSS+PBS) ([2]; 2% DSS 8 days, KBL697 2×10^9 CFU oral daily, infliximab 5 mg/kg, D14, FIGS. 18A, 18B) | effect on body weight decrease compared to control group ([2]; 2% DSS, when 14 days elapsed after the administration)
CN1CCC(=C2c3ccccc3CC(=O)c3sccc32)CC1 [Ketotifen, ketotifen] | 0.3861 fold change | – | –
infliximab: therapeutic recombinant antibody drug (product name Remicade) | – | significantly improved | significantly improved

Reference: patent US11819526B2, “Lactobacillus Gasseri KBL697 strain and use thereof” (KoBioLabs, Inc., priority 2018, dated 2023)
